Experimental data taken from article PMC7687371, “Quantitative in Vitro to in Vivo Extrapolation (QIVIVE) for Predicting Reduced Anogenital Distance Produced by Anti-Androgenic Pesticides in a Rodent Model for Male Reproductive Disorders” (Environmental Health Perspectives, 2020).

Legend:
[1] = biological target: T1, androgen receptor (AR) (Homo sapiens, UniProt P10275); assay: AR-EcoScreen androgen receptor transcriptional activation assay (AR antagonism); type: cell-based
T1 construct: host or cells: AR-EcoScreen cells
T1 sequence (P10275 1-920): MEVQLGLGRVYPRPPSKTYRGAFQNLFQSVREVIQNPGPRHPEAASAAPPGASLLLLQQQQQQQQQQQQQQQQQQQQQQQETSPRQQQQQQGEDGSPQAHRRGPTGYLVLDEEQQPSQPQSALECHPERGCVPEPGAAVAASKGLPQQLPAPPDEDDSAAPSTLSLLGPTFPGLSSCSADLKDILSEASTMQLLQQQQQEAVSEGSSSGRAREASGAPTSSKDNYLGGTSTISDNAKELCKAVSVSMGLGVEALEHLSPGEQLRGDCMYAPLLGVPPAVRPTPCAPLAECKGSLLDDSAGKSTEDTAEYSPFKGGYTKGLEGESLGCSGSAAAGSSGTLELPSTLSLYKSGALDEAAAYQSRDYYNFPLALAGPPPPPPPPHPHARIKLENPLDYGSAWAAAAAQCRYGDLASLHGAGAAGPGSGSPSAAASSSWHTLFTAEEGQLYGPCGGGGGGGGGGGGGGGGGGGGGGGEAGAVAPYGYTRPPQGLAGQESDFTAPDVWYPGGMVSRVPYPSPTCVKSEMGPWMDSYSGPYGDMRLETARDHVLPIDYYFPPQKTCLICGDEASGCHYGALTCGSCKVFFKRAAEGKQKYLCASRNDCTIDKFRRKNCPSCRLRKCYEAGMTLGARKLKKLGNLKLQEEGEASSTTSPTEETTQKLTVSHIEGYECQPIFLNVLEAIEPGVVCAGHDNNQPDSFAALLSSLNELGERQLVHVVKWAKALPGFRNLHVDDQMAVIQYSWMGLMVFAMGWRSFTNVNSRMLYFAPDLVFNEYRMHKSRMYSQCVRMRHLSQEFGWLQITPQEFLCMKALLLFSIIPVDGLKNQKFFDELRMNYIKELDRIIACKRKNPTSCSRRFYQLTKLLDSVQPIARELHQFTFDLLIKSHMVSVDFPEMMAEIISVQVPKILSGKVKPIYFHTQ
Procedure: Experiments were run with three technical replicates and repeated three times. The mean value of technical replicates represents one biological replicate. AR-EcoScreen™ cells (JCRB1328; Japanese Collection of Research Bioresources) were grown in CellBIND® surface cell culture flasks (Corning Inc.) in growth medium consisting of Gibco® Dulbecco’s Modified Eagle’s Medium/F-12 (DMEM/F-12) Nutrient Mixture with L-glutamine and 4-(2-hydroxyethyl)-1-piperazineethanesulfonic acid (HEPES) and without phenol red supplemented with 5% fetal bovine serum (FBS), 1% penicillin-streptomycin, 200μg/mL Zeocin™ selection reagent, and 100μg/mL Hygromycin B (all reagents from Invitrogen, Life Technologies). The cells were incubated at 37°C in a humidified atmosphere of 5% carbon dioxide ( CO2 ) and 95% air. On the day before the experiment, cells were plated in white 96-well plates (Corning Inc.) at a density of 9,000 cells/well in assay medium consisting of Gibco® DMEM/F-12 Nutrient Mixture medium, 1% penicillin-streptomycin, with 5% dextran-coated charcoal-treated FBS (all reagents from Invitrogen, Life Technologies). On the following day, the medium was changed to assay medium containing the known AR agonist R1881 (Perkin Elmer) in 2-fold serial dilutions from 0.008 to 1 nM or the known AR antagonist hydroxyflutamide (CASRN 52806-53-8, Toronto Research Chemicals) in 3-fold serial dilutions from […] together with 0.1 nM R1881. […] The DMSO vehicle concentrations were kept constant in all wells (0.1%). Following approximately 20 h of exposure to test compounds firefly luminescence was measured in a luminometer (LUMIstar® Galaxy, BMG LABTECH) using Dual-Glo® Luciferase Reagent from the Dual-Glo® Luciferase Assay System from Promega. Cell viability was measured by Renilla luminescence using Dual-Glo® Stop & Glo® Reagent from the Dual-Glo® Luciferase Assay System.

[2] = PBK model first-order kinetic parameters fitted to in vivo ADME data; set-up: species or system rat
[3] = Fetal chemical exposure analysis (LC-QTOF) at GD21; type: in vivo, rat; conditions: fetal plasma GD21
Procedure: Dams were decapitated under CO2 /oxygen anesthesia at GD21 and fetuses collected by cesarean section. Prior to decapitation of the fetuses, their BWs and AGDs were recorded. Blood from the dams was collected in heparinized vacutainer tubes, centrifuged at 125×g for 10 min at 4°C to prepare plasma, and, together with the amniotic fluid, frozen directly. Pooled trunk blood from all female and male fetuses of the same litter (female and male blood separately) was collected into heparin-treated capillary tubes approximately 90 min after dosing and the plasma was prepared and stored at −80°C until analysis for pesticides and selected metabolites by liquid chromatography quadrupole time-of-flight mass spectroscopy (LC-QTOF). Details about the LC-QTOF analyses are provided in “Method S1” in Supplemental Material. Amniotic fluid was collected from fetuses by pipetting, pooled within each litter, snap frozen in liquid nitrogen, and subsequently stored at −80 °C .
Method S1. Chemical analysis of pesticide levels
Acetonitrile, methanol, formic acid and 25% ammonium hydroxide, all of LC-MS grade and ethyl acetate were obtained from Sigma Aldrich, Schneldorf, Germany. Isolute bulk C-18 sorbent was obtained from Biotage, Sweden and was washed with acetonitrile and ethyl acetate and dried prior to use. Water was purified on a Milli Q system, Millipore Corporation, US.
Pesticide standards were purchased from Dr. Ehrenstorfer (Augsburg, Germany), LGC-standards (Teddington, Middlesex, UK) and Sigma Aldrich (St. Louis, MO, USA). Acetonitrile used as solvents for the LC-QTOF was LiChrosolv Hypergrade. An ESI-L low concentration tuning mix from Agilent (Santa Clara, CA, USA) was used for tuning of the TOF. A reference solution was prepared containing Purine and HP0921 from Agilent (Santa Clara, CA, USA).
Stock solutions of the pesticides were prepared at 1 mg/ml in acetonitrile, methanol or toluene.
Standard mixtures containing the test compounds were prepared at a concentration of 10 µg/ml acetonitrile and used for preparation of calibration solutions. Isomers eluting very close to each other were avoided in these mixtures. […]
added 200 µl of ice-cold acetonitrile in Eppendorf tubes. Internal standard was added in the form of 10 µl TPP (5 µg/ml) and the extraction was performed by whirl mixing. The tube was then stored on ice for 5 min and then centrifuged at 10,000 x g for 10 min at 4 °C (Ole Dich Instrument, Denmark). An aliquot of the supernatant was transferred to filter vials (0.45 µm) and analysed by […]
Quality control samples were included in each analytical run. These were prepared using the same procedure as for the samples, though using amniotic fluid from untreated control Wistar rats extracted with acetonitrile containing three different levels of the relevant pesticide standards. The resulting spike levels were 0.04, 0.013 and 0.13 µg/ml. […]
fluid or plasma from Sprague Dawley rats was transferred to an Eppendorf vial and added 150 µl of acetonitrile. 50 mg of isolute C-18 sorbent was added to the tube, which was shaken for 5 min, […]
cooled to 4 °C and centrifuged at 10,000 x g for 10 min at 4 °C (Ole Dich Instrument makers, Denmark). 20 µl of the supernatant was transferred to an HPLC vial and mixed with 80 µl of 5%- 75% acetonitrile (this percentage was analyte dependent) prior to analysis by LC-MS.LC -QTOF […]
Pesticide screening was carried out using a liquid chromatography-electrospray ionization-quadrupole-time of flight-mass spectrometer.
The LC system was connected to a Bruker Daltonics, maXis qTOF mass spectrometer equipped with an electrospray ion source operated in positive ion mode (Bruker Daltonics, Bremen, Germany). The ion source settings were: nebulizer pressure 2 bars, drying gas flow 8 l/min, dry gas temperature 200 °C, capillary voltage 2500 V. The scan range was from 80 to 700 m/z with an acquisition rate of 2 Hz. Sodium formate dissolved in 50% 2-propanol was introduced in the ion […]

[4] = set-up: method as in U.S. EPA 2012; conditions: EPI Suite, experimental preferred over modeled; ref U.S. EPA 2012; cited from earlier work

## CONC(=O)Nc1ccc(Cl)c(Cl)c1 [DPMU, 1-(3,4-Dichlorophenyl)-3-methoxyurea]
[1]
  IC50: 4 µM
[2]; PBK model parameter
  Urine excretion rate from kidney (L/h) KUrine: 0.05 L/h
[2]; conversion of parent compound into active metabolite
  Metabolism rate in liver, Metabolite: 0.22 L/h
[2]; metabolic clearance, PBK model parameter
  Metabolism rate in liver, Total (L/h) KMetab: 0.02 L/h
[3]; dams dosed linuron 25 mg/kg BW per day
  Measured concentration in male fetuses: 5.0 µM
[3]; dams dosed linuron 50 mg/kg BW per day
  Measured concentration in male fetuses: 9.6 µM
[3]; dams dosed linuron 75 mg/kg BW per day
  Measured concentration in male fetuses: 21.4 µM
[4]
  log Kow: 2.70
